Data on 27 compounds can be found in ChEMBL document CHEMBL5236647, “The discovery of 3,3-dimethyl-1,2,3,4-tetrahydroquinoxaline-1-carboxamides as AMPD2 inhibitors with a novel mechanism of action” (Bioorg Med Chem Lett, 2023).

Series [1] deals with T1, AMP deaminase 2 (Homo sapiens) (UniProt Q01433).
T1 sequence (whole entry): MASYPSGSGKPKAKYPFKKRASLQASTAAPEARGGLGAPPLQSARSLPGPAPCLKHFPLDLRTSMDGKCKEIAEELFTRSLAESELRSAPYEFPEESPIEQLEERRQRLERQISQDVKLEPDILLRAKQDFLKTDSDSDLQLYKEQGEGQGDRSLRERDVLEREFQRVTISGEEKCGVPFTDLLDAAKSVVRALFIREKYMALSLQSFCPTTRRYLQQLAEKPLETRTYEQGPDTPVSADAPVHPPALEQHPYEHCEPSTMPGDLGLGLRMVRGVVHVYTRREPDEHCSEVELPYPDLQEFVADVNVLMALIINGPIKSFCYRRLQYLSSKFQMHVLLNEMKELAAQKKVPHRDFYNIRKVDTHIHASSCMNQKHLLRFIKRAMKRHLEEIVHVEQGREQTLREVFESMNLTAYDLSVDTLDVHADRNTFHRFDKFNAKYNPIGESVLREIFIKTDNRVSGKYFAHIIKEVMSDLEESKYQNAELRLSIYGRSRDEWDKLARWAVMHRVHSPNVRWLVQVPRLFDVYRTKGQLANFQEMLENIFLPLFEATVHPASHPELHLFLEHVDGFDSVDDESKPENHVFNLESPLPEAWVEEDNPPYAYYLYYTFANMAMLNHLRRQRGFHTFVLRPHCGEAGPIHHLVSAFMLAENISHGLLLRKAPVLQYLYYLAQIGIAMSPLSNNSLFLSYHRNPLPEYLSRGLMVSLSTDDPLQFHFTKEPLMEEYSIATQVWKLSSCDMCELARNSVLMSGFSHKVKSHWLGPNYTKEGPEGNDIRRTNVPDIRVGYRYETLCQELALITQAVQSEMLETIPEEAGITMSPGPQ
Nature of the series: Selectivity ratio of IC50 for recombinant human AMPD2 using AMP as substrate incubated for 30 mins by spectrophotometric analysis to IC50 for recombinant human AMPD2 using AMP as substrate preincubated for 30 mins followed by substrate addition and measured after 30 mins by spectrophotometric analysis.

Series [2] addresses T2, AMP deaminase 2 (Homo sapiens, UniProt Q01433).
T2 sequence (Q01433 whole entry): T1 sequence (whole entry)
As to the kind of experiment: Inhibition of recombinant human AMPD2 using AMP as substrate preincubated for 30 mins followed by substrate addition and measured after 30 mins by spectrophotometric analysis.

Series [3] concerns the target T2, AMP deaminase 2. As to the kind of experiment: Inhibition of recombinant human AMPD2 using AMP as substrate incubated for 30 mins by spectrophotometric analysis.
Series [4] addresses T3, AMP deaminase 1 (Homo sapiens) (UniProt P23109).
T3 sequence (whole entry): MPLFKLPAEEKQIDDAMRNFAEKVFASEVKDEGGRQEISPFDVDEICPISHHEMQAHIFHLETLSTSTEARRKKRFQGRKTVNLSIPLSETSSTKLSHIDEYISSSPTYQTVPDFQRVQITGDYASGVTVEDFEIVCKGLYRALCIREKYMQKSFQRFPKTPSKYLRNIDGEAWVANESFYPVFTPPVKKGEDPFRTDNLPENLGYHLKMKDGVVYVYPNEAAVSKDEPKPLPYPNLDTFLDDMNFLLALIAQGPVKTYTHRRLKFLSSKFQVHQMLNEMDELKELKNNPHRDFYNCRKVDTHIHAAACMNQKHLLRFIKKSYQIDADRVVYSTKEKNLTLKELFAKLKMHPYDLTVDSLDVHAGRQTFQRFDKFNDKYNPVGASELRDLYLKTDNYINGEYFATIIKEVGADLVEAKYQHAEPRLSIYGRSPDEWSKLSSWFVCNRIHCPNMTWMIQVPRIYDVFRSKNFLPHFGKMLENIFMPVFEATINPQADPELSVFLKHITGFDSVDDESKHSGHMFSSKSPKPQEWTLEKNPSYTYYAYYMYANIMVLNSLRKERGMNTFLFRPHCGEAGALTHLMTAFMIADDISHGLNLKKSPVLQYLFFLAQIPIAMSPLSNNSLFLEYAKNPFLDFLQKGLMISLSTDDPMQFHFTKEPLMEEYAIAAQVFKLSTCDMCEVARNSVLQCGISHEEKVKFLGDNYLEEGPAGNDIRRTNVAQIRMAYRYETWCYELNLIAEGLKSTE
Nature of the series: Inhibition of AMPD1 (unknown origin) at 100 uM.

Series [5] is described as follows: Metabolic stability in mouse liver microsomes assessed as compound remaining at 5 uM after 1 hr. Type of series: ADME, Microsome. Conditions: read-out: Stability.
Series [6] can be described thus: Ex vivo inhibition of AMPD2 in C57BL/6J mouse liver at 30 mg/kg, po administered for 1 hr. Type of series: functional.
In series [7] the target is T4, AMP deaminase 2 (Mus musculus, UniProt Q9DBT5).
T4 sequence (Q9DBT5 whole entry): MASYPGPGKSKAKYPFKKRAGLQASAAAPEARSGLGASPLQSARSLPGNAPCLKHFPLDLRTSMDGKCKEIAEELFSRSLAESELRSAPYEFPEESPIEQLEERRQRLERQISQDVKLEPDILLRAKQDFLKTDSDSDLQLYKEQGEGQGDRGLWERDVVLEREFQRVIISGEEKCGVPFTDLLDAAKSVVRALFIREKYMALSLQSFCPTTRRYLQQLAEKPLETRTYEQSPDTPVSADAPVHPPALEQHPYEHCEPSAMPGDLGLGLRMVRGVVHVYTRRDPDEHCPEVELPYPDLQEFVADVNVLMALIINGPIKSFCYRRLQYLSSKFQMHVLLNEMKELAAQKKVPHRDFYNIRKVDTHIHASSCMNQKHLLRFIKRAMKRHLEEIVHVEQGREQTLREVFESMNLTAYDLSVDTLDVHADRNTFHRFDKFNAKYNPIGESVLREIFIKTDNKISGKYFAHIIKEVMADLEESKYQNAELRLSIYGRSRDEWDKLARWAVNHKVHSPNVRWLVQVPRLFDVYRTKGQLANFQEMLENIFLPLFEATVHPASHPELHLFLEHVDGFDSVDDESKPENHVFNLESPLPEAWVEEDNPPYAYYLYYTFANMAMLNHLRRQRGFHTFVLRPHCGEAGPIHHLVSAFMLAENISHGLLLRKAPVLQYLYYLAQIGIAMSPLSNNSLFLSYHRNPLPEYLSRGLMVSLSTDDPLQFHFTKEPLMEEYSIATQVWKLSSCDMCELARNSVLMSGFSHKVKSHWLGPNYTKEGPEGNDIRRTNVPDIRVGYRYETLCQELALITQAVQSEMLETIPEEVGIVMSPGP
Nature of the series: Inhibition of recombinant mouse AMPD2 using AMP as substrate preincubated for 30 mins followed by substrate addition and measured after 30 mins by spectrophotometric analysis.

One may read the IC50 as the concentration that inhibits the measured activity by half. What is called inhibition in vivo is the share of the control response that was lost under treatment. High values mean a strong effect, low ones a weak effect.

Active and inactive are the calls of the source. The calls are words filed in the database; no cut-off is given here.

For the compound `CC1(C)CN(C(N)=O)c2cccc(Cl)c2N1Cc1ccccc1`, in series [1], the Ratio IC50 worked out at 9.2. Besides, the IC50 at AMP deaminase 2 [2] stood at 180 nM; at AMP deaminase 2 [3], 1700 nM.

Turning to `CC1(C)CN(C(N)=O)c2cc(F)cc(F)c2N1Cc1ccccc1`, the Ratio IC50 in series [1] stood at 16. The IC50 is 260 nM on AMP deaminase 2 [2] and 4100 nM on AMP deaminase 2 [3].

As to `CC1(C)CN(C(N)=O)c2cccc(F)c2N1Cc1ccccc1`, in series [1], the Ratio IC50 turned out to be 36. Moreover, the IC50 turned out to be 30 nM at AMP deaminase 2 [2] and 1100 nM at AMP deaminase 2 [3].

As to `CC1(C)CN(C(N)=O)c2ccccc2N1Cc1ccc(OCc2ccccc2)cc1`, the Ratio IC50 in series [1] was determined as 4.2. Moreover, the IC50 at AMP deaminase 2 [2] is 740 nM; on AMP deaminase 2 [3] it was 3100 nM.

Turning to `CC1(C)CN(C(N)=O)c2c(F)cccc2N1Cc1ccccc1`, the Ratio IC50 in series [1] was 8. The IC50 came to 500 nM on AMP deaminase 2 [2] and 4000 nM at AMP deaminase 2 [3].

As to `CC1(C)CN(C(N)=O)c2ccccc2N1Cc1cccc(CCc2ccccc2)c1`, the IC50 at AMP deaminase 2 [2] is 500 nM; at AMP deaminase 2 [3] it was more than 3000 nM.

`CC1(C)CN(C(N)=O)c2ccccc2N1Cc1ccccc1Cl`: the Ratio IC50 in series [1] was 1.8. Also, the IC50 on AMP deaminase 2 [2] is 12000 nM; on AMP deaminase 2 [3], 21000 nM.

Turning to `CC1(C)CN(C(N)=O)c2ccccc2N1Cc1ccc(OC(F)(F)F)cc1`, the Ratio IC50 in series [1] is 15. Also, the IC50 stood at 270 nM at AMP deaminase 2 [2] and 4100 nM at AMP deaminase 2 [3].

As to `CCC(=O)N1CC(C)(C)N(Cc2ccccc2)c2ccccc21`, the IC50 at AMP deaminase 2 [3] is more than 100000 nM.

For the compound `CC1(C)CN(C(N)=O)c2ccc(F)cc2N1Cc1ccccc1`, the Ratio IC50 in series [1] is 4.6. The IC50 amounted to 1100 nM on AMP deaminase 2 [2] and 5100 nM at AMP deaminase 2 [3].

For the compound `CC1(C)CN(C(N)=O)c2ccccc2N1Cc1ccc(Cl)cc1`, the Ratio IC50 in series [1] was 8.9. The IC50 was found to be 190 nM on AMP deaminase 2 [2] and 1700 nM at AMP deaminase 2 [3].

`Cc1ccc(CN2c3ccccc3N(C(N)=O)CC2(C)C)cc1`: in series [1], the Ratio IC50 came to 8.2. Moreover, the IC50 worked out at 170 nM on AMP deaminase 2 [2] and 1400 nM at AMP deaminase 2 [3].

On to `CC1(C)CN(C(N)=O)c2ccccc2N1Cc1ccccc1`, for which the inhibition entry in series [4] is “inactive”. Moreover, the Ratio IC50 in series [1] turned out to be 11. Also, the figures for the concentration for half-maximal inhibition (IC50) at AMP deaminase 2 [2] and at AMP deaminase 2 [3] were 270 nM and 3000 nM, respectively.

Take `CC(=O)N1CC(C)(C)N(Cc2ccccc2)c2ccccc21`: in series [1], the Ratio IC50 amounted to 1.4. Moreover, the concentration for half-maximal inhibition (IC50) on AMP deaminase 2 [2] worked out at 41000 nM; on AMP deaminase 2 [3] it was 57000 nM.

On to `CNC(=O)N1CC(C)(C)N(Cc2ccccc2)c2ccccc21`, for which, on AMP deaminase 2 [3], the IC50 was more than 100000 nM.

`Cc1cccc(CN2c3ccccc3N(C(N)=O)CC2(C)C)c1`: the Ratio IC50 in series [1] was 7.5. The IC50 was 300 nM on AMP deaminase 2 [2] and 2300 nM at AMP deaminase 2 [3].

As for `CC(=O)Nc1ccc(OCc2ccc(CN3c4c(ccc(F)c4F)N(C(N)=O)CC3(C)C)cc2)cc1`, the remaining at 1 h, 5 µM in series [5] was determined as 34%. This compound had an inhibition in vivo at 30 mg/kg in series [6] of 19%. Also, at AMP deaminase 2 [2], the IC50 is 170 nM.

`CC1(C)CN(C(N)=O)c2ccccc2N1Cc1ccc(COc2ccccc2)cc1`: the Ratio IC50 in series [1] stood at 25. Also, the IC50 turned out to be 110 nM on AMP deaminase 2 [2] and 2600 nM on AMP deaminase 2 [3].

Take `CC1(C)CN(C(N)=O)c2ccc(F)c(F)c2N1Cc1ccc(COc2ccc(C(N)=O)cc2)cc1`: the remaining at 1 h, 5 µM in series [5] worked out at 56%. This compound also displayed an inhibition in vivo at 30 mg/kg in series [6] of 58%. Moreover, the IC50 at AMP deaminase 2 [2] was 200 nM.

In the case of `CC1(C)CN(C(N)=O)c2ccccc2N1Cc1ccc(CCc2ccccc2)cc1`, the Ratio IC50 in series [1] is 15. Moreover, the values for the IC50 on AMP deaminase 2 [2] and at AMP deaminase 2 [3] were 410 nM and 6000 nM, respectively.

Take `CC1(C)CN(C(N)=O)c2ccccc2N1Cc1cccc(OC(F)(F)F)c1`: the Ratio IC50 in series [1] was 9.2. The IC50 at AMP deaminase 2 [2] was found to be 140 nM; at AMP deaminase 2 [3] it was 1300 nM.

For the compound `CC1(C)CN(C(N)=O)c2cc(F)ccc2N1Cc1ccccc1`, the Ratio IC50 in series [1] was determined as 8.2. In addition, the IC50 at AMP deaminase 2 [2] amounted to 240 nM; at AMP deaminase 2 [3], 1900 nM.

`CC1(C)CN(C(N)=O)c2ccc(F)c(F)c2N1Cc1ccc(COc2ccc(CO)cc2)cc1`: the IC50 at AMP deaminase 2 [7] is 110 nM; on AMP deaminase 2 [2], 100 nM. Also, the remaining at 1 h, 5 µM in series [5] worked out at 46%. The compound also came in with an inhibition in vivo at 30 mg/kg in series [6] of 83%.

Turning to `CC1(C)CN(S(C)(=O)=O)c2ccccc2N1Cc1ccccc1`, on AMP deaminase 2 [3], the IC50 is more than 100000 nM.

`Cc1cccc2c1N(Cc1ccccc1)C(C)(C)CN2C(N)=O`: the Ratio IC50 in series [1] is 2.3. Moreover, the figures for the IC50 on AMP deaminase 2 [2] and at AMP deaminase 2 [3] were 2200 nM and 5000 nM, respectively.

On to `CC1(C)CN(C(N)=O)c2ccc(F)c(F)c2N1Cc1ccc(COc2ccccc2)cc1`, for which the remaining at 1 h, 5 µM in series [5] turned out to be 51%. Besides, testing at 30 mg/kg in series [6] gave an inhibition in vivo of 24%. In addition, the IC50 at AMP deaminase 2 [2] stood at 130 nM.

Turning to `CC1(C)CN(C(N)=O)c2ccc(F)c(F)c2N1Cc1ccccc1`, the IC50 at AMP deaminase 2 [7] came to 40 nM; on AMP deaminase 2 [2], 60 nM; on AMP deaminase 2 [3] it was 1800 nM. In addition, the Ratio IC50 in series [1] was 33. Moreover, the remaining at 1 h, 5 µM in series [5] was found to be 18%. The compound further yielded an inhibition in vivo at 30 mg/kg in series [6] of 71%.
